Key:
[1] = target: ATP-dependent translocase ABCB1 (Homo sapiens, UniProt P08183); assay: TP_TRANSPORTER: transepithelial transport (basal to apical) in Caco-2 cells; type: functional, cell-based
[2] = target: T1, ATP-dependent translocase ABCB1 (Mus musculus, UniProt P21447); assay: TP_TRANSPORTER: increase in lung concentration in mdr1a(-/-) mouse; type: functional, organism-based; conditions: in vivo
[3] = target: T1, ATP-dependent translocase ABCB1; assay: TP_TRANSPORTER: increase in small intestine concentration in mdr1a(-/-) mouse; type: functional, organism-based; conditions: in vivo
[4] = target: T1, ATP-dependent translocase ABCB1; assay: TP_TRANSPORTER: increase in kidney concentration in mdr1a(-/-) mouse; type: functional, organism-based; conditions: in vivo
[5] = target: T1, ATP-dependent translocase ABCB1; assay: TP_TRANSPORTER: increase in plasma concentration in mdr1a(-/-) mouse; type: functional, organism-based; conditions: in vivo
[6] = target: T1, ATP-dependent translocase ABCB1; assay: TP_TRANSPORTER: increase in liver concentration in mdr1a(-/-) mouse; type: functional, organism-based; conditions: in vivo
[7] = target: T1, ATP-dependent translocase ABCB1; assay: TP_TRANSPORTER: increase in spleen concentration in mdr1a(-/-) mouse; type: functional, organism-based; conditions: in vivo
[8] = target: T1, ATP-dependent translocase ABCB1; assay: TP_TRANSPORTER: increase in brain concentration in mdr1a(-/-) mouse; type: functional, organism-based; conditions: in vivo

Measured: Activity

T1 sequence (P21447 whole entry): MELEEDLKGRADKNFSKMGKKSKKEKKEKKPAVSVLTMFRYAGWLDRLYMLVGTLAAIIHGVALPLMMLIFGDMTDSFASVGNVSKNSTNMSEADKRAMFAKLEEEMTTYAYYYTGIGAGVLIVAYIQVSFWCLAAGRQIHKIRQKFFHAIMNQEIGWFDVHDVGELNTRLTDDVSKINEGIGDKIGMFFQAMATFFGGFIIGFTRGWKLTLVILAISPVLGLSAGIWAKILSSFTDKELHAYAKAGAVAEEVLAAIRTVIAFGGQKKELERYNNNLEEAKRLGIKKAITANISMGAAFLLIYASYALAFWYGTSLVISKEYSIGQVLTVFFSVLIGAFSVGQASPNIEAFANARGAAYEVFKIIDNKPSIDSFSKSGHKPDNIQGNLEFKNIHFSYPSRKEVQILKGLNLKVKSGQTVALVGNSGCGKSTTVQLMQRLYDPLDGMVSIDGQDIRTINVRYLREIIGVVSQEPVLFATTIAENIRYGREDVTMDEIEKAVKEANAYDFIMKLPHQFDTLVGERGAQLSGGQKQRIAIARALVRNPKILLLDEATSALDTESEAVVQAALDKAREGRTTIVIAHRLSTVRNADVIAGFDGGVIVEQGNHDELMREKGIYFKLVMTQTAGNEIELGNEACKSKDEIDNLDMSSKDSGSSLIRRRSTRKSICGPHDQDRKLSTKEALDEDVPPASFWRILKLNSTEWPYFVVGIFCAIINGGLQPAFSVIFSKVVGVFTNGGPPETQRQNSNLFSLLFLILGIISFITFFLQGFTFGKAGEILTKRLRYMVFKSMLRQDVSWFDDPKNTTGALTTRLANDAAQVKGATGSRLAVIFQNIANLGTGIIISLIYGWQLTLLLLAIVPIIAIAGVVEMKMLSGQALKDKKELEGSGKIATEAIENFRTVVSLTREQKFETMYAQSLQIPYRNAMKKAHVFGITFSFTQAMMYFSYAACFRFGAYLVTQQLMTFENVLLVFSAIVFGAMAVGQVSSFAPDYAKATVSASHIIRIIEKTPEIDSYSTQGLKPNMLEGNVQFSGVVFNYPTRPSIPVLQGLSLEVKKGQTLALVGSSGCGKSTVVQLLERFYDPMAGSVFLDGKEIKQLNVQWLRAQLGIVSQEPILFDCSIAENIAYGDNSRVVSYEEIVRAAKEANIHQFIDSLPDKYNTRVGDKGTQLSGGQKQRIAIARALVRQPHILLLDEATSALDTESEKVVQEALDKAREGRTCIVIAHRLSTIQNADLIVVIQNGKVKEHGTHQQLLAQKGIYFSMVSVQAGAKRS
Sequence of ATP-dependent translocase ABCB1 (Homo sapiens, UniProt P08183) (P08183 whole entry): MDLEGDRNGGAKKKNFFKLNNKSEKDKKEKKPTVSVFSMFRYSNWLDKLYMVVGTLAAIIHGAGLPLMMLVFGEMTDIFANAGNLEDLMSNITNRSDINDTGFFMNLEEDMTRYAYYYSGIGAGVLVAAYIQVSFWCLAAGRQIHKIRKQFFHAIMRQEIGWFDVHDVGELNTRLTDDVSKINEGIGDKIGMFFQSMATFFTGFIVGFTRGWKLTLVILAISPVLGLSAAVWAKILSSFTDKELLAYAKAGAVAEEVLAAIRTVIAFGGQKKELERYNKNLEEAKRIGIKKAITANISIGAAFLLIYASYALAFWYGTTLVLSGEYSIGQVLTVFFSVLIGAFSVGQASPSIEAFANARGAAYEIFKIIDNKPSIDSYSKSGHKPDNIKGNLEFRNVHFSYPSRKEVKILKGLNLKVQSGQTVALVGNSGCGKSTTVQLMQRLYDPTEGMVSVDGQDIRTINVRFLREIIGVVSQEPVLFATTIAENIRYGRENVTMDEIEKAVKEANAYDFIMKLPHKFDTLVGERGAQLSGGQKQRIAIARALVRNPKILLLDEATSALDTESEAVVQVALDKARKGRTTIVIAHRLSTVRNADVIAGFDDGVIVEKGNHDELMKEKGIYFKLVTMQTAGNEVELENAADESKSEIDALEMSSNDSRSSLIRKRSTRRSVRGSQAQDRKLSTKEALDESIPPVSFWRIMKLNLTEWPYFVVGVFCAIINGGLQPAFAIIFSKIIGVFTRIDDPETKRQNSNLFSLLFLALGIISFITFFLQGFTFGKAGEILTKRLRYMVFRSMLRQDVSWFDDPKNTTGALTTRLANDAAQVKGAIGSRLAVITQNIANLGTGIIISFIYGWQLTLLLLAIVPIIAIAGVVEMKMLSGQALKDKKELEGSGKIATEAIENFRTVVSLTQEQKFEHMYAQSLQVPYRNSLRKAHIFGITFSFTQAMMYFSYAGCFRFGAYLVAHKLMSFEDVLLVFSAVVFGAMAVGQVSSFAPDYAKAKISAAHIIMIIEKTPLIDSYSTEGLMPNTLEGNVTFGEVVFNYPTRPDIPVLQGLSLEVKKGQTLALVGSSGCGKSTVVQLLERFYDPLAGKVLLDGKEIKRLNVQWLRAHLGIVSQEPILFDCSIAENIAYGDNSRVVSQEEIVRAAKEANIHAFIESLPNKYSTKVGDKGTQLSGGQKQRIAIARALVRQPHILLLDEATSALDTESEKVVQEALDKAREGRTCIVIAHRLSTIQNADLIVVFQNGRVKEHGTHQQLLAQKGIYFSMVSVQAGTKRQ

C[C@H]1O[C@@H](O[C@H]2[C@@H](O)C[C@H](O[C@H]3[C@@H](O)C[C@H](O[C@H]4CC[C@@]5(C)[C@H](CC[C@@H]6[C@@H]5C[C@@H](O)[C@]5(C)[C@@H](C7=CC(=O)OC7)CC[C@]65O)C4)O[C@@H]3C)O[C@@H]2C)C[C@H](O)[C@@H]1O [DIGOXIN]
substrate [+]: [1]

C=C[C@H]1C[N@@]2CC[C@H]1C[C@@H]2[C@@H](O)c1ccnc2ccc(OC)cc12 [QUINIDINE]
not listed: [1]
substrate [+]: all other assays above

— ChEMBL document CHEMBL2074504, “Inhibition of P-glycoprotein-mediated drug transport: A unifying mechanism to explain the interaction between digoxin and quinidine [seecomments]” (Circulation, 1999)
